From PMC7183711, “Co-production of gallic acid and a novel cell-associated tannase by a pigment-producing yeast, Sporidiobolus ruineniae A45.2” (Microbial Cell Factories, 2020)

Test system: T1, purified tannase (PT); cell-associated tannase (CAT) of Sporidiobolus ruineniae A45.2
T1 construct: gene tannin acyl hydrolase; native enzyme released from cell wall with Triton X-100, Q-Sepharose purified
Experiment: rhodanine assay of released gallic acid, A520; Michaelis-Menten fit
Format: biochemical, Rhodosporidiobolus ruineniae
Conditions: 100 mM sodium phosphate pH 6.5, 30 °C, 10 min; 0.25-12.5 mM methyl gallate; purified free enzyme

Question: Which Km does the source give for `COC(=O)c1cc(O)c(O)c(O)c1` [methyl gallate] here?
Answer: 2600 ± 400 µM
